Five compounds from patent US20260265329A1, “POLYPEPTIDE AND DERIVATIVE THEREOF, COMPOSITION, AND USE THEREOF” (HANGZHOU SCIWIND BIOSCIENCES CO., LTD., priority 2023, published 2026) can be followed below.

In this assay the target is T1, human amylin receptors (Homo sapiens, UniProt O60896+P30988).
T1 construct: host or cells: CHO-K1/Ga15/AMY3 cells, further stably transfected with a CRE-luciferase plasmid
T1 sequence (P30988 25-474): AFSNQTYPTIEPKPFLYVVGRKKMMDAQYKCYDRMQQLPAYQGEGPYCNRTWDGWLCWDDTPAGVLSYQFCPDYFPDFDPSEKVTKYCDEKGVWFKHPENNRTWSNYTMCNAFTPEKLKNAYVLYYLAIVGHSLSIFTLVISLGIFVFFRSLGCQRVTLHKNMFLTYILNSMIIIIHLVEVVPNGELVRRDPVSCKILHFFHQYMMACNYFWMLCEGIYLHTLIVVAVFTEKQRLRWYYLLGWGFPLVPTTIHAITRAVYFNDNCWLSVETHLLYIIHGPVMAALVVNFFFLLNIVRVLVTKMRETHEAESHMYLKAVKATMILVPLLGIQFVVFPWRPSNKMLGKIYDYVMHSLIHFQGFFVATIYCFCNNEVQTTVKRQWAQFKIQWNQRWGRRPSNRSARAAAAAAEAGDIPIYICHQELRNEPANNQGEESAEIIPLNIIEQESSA
T1 sequence (O60896 24-148 partner): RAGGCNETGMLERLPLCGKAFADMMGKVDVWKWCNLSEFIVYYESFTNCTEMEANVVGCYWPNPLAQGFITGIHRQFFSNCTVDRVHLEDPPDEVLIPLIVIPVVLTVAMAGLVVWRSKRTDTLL
Put plainly: Luciferase assay in stably transfected amylin receptor/CRE-luc CHO cell line. The class given is cell-based. The note with it: for Relative activity: EC50 ratio of Cagrilintide to the compound, Cagrilintide 100%; for EC50: amylin receptor/CRE-luc CHO cells, 24 hours incubation, luminescence.

Starred links: 1 amine or outer side, 2 acyl side, 3 side chain; linkers in the order of their positions; H or OH if unused. Non-standard residues stand in square brackets, D forms with d. Residues, ends and D or L forms follow the SMILES beside them. *: point of attachment. C20 diacid = O=C(O)CCCCCCCCCCCCCCCCCCC(=O)*; C18 diacid = O=C(O)CCCCCCCCCCCCCCCCC(=O)*; γGlu = O=C(O)[C@H](CCC(=O)[*:2])N[*:1]; βAsp = O=C(O)[C@H](CC(=O)[*:2])N[*:1]; Hyp = O=C(O)[C@@H]1C[C@@H](O)CN1; AEEA = NCCOCCOCC(=O)O

In general, EC50 refers to the concentration that produces a half-maximal response. With `CC[C@H](C)[C@H](NC(=O)[C@@H]1CCCN1C(=O)[C@H](CCCCN)NC(=O)[C@H](CC(C)C)NC(=O)[C@H](CC(N)=O)NC(=O)[C@H](CC(N)=O)NC(=O)[C@H](CO)NC(=O)[C@H](CO)NC(=O)[C@H](Cc1c[nH]cn1)NC(=O)[C@H](CCCNC(=N)N)NC(=O)[C@H](CC(C)C)NC(=O)[C@H](Cc1ccccc1)NC(=O)[C@H](CC(=O)O)NC(=O)[C@H](C)NC(=O)[C@H](CC(C)C)NC(=O)[C@H](CCCNC(=N)N)NC(=O)[C@H](CCC(N)=O)NC(=O)[C@@H](NC(=O)[C@H](C)NC(=O)[C@H](C)NC(=O)[C@@H](NC(=O)[C@H](CO)NC(=O)[C@H](CC(C)C)NC(=O)[C@H](CCC(N)=O)NC(=O)[C@H](CO)NC(=O)[C@H](C)NC(=O)COCCOCCNC(=O)COCCOCCNC(=O)[C@H](CCC(=O)O)NC(=O)CCCCCCCCCCCCCCCCCCC(=O)O)[C@@H](C)O)[C@@H](C)O)C(=O)N[C@@H](CC(C)C)C(=O)N1CCC[C@H]1C(=O)N1CCC[C@H]1C(=O)N[C@H](C(=O)N[C@@H](CC(N)=O)C(=O)N[C@H](C(=O)NCC(=O)N[C@@H](CO)C(=O)N[C@@H](CC(N)=O)C(=O)N[C@H](C(=O)N1C[C@H](O)C[C@H]1C(N)=O)[C@@H](C)O)C(C)C)[C@@H](C)O` [M32] ({C20 diacid}-E[AEEA][AEEA]ASQLSTAATQRLADFLRHSSNNLKPILPPTNVGSNT[Hyp]-NH2), the Relative activity amounted to 44% and the midpoint of the response, the EC50, lay at 115 pM.

With `CC[C@H](C)[C@H](NC(=O)[C@@H]1CCCN1C(=O)[C@H](CCCCN)NC(=O)[C@H](CC(C)C)NC(=O)[C@H](CC(N)=O)NC(=O)[C@H](CC(N)=O)NC(=O)[C@H](CO)NC(=O)[C@H](CO)NC(=O)[C@H](Cc1c[nH]cn1)NC(=O)[C@H](CCCNC(=N)N)NC(=O)[C@H](CC(C)C)NC(=O)[C@H](Cc1ccccc1)NC(=O)[C@H](CC(=O)O)NC(=O)[C@H](C)NC(=O)[C@H](CC(C)C)NC(=O)[C@H](CCCNC(=N)N)NC(=O)[C@H](CCC(N)=O)NC(=O)[C@@H](NC(=O)[C@H](C)NC(=O)[C@H](C)NC(=O)[C@@H](NC(=O)[C@H](CO)NC(=O)[C@H](CC(C)C)NC(=O)[C@H](CCC(N)=O)NC(=O)[C@H](CO)NC(=O)[C@H](C)NC(=O)CC[C@H](NC(=O)CCCCCCCCCCCCCCCCC(=O)O)C(=O)O)[C@@H](C)O)[C@@H](C)O)C(=O)N[C@@H](CC(C)C)C(=O)N1CCC[C@H]1C(=O)N1CCC[C@H]1C(=O)N[C@H](C(=O)N[C@@H](CC(N)=O)C(=O)N[C@H](C(=O)NCC(=O)N[C@@H](CO)C(=O)N[C@@H](CC(N)=O)C(=O)N[C@H](C(=O)N1C[C@H](O)C[C@H]1C(N)=O)[C@@H](C)O)C(C)C)[C@@H](C)O` [M37] ({C18 diacid-γGlu}-ASQLSTAATQRLADFLRHSSNNLKPILPPTNVGSNT[Hyp]-NH2), the Relative activity worked out at 184% and the EC50 stood at 30 pM.

On to `CC[C@H](C)[C@H](NC(=O)[C@@H]1CCCN1C(=O)[C@H](CCCCN)NC(=O)[C@H](CC(C)C)NC(=O)[C@H](CC(N)=O)NC(=O)[C@H](CC(N)=O)NC(=O)[C@H](CO)NC(=O)[C@H](CO)NC(=O)[C@H](Cc1c[nH]cn1)NC(=O)[C@H](CCCNC(=N)N)NC(=O)[C@H](CC(C)C)NC(=O)[C@H](Cc1ccccc1)NC(=O)[C@H](CC(=O)O)NC(=O)[C@H](C)NC(=O)[C@H](CC(C)C)NC(=O)[C@H](CCCNC(=N)N)NC(=O)[C@H](CCC(N)=O)NC(=O)[C@@H](NC(=O)[C@H](C)NC(=O)[C@H](C)NC(=O)[C@@H](NC(=O)[C@H](CO)NC(=O)[C@H](CC(C)C)NC(=O)[C@H](CCC(N)=O)NC(=O)[C@H](CO)NC(=O)[C@H](C)NC(=O)COCCOCCNC(=O)COCCOCCNC(=O)C[C@H](NC(=O)CCCCCCCCCCCCCCCCCCC(=O)O)C(=O)O)[C@@H](C)O)[C@@H](C)O)C(=O)N[C@@H](CC(C)C)C(=O)N1CCC[C@H]1C(=O)N1CCC[C@H]1C(=O)N[C@H](C(=O)N[C@@H](CC(N)=O)C(=O)N[C@H](C(=O)NCC(=O)N[C@@H](CO)C(=O)N[C@@H](CC(N)=O)C(=O)N[C@H](C(=O)N1C[C@H](O)C[C@H]1C(N)=O)[C@@H](C)O)C(C)C)[C@@H](C)O` [M33] ({C20 diacid-βAsp-AEEA-AEEA}-ASQLSTAATQRLADFLRHSSNNLKPILPPTNVGSNT[Hyp]-NH2), for which the Relative activity turned out to be 37% and the EC50 was 145 pM.

Take `CC[C@H](C)[C@H](NC(=O)[C@@H]1CCCN1C(=O)[C@H](CCCCN)NC(=O)[C@H](CC(C)C)NC(=O)[C@H](CC(N)=O)NC(=O)[C@H](CC(N)=O)NC(=O)[C@H](CO)NC(=O)[C@H](CO)NC(=O)[C@H](Cc1c[nH]cn1)NC(=O)[C@H](CCCNC(=N)N)NC(=O)[C@H](CC(C)C)NC(=O)[C@H](Cc1ccccc1)NC(=O)[C@H](CC(=O)O)NC(=O)[C@H](C)NC(=O)[C@H](CC(C)C)NC(=O)[C@H](CCCNC(=N)N)NC(=O)[C@H](CCC(N)=O)NC(=O)[C@@H](NC(=O)[C@H](C)NC(=O)[C@H](C)NC(=O)[C@@H](NC(=O)[C@H](CO)NC(=O)[C@H](CC(C)C)NC(=O)[C@H](CCC(N)=O)NC(=O)[C@H](CO)NC(=O)[C@H](C)NC(=O)[C@H](CC(=O)O)NC(=O)CCCCCCCCCCCCCCCCCCC(=O)O)[C@@H](C)O)[C@@H](C)O)C(=O)N[C@@H](CC(C)C)C(=O)N1CCC[C@H]1C(=O)N1CCC[C@H]1C(=O)N[C@H](C(=O)N[C@@H](CC(N)=O)C(=O)N[C@H](C(=O)NCC(=O)N[C@@H](CO)C(=O)N[C@@H](CC(N)=O)C(=O)N[C@H](C(=O)N1C[C@H](O)C[C@H]1C(N)=O)[C@@H](C)O)C(C)C)[C@@H](C)O` [M28] ({C20 diacid}-DASQLSTAATQRLADFLRHSSNNLKPILPPTNVGSNT[Hyp]-NH2): the Relative activity was 128% and a half-maximal response (EC50) required 39 pM.

On to `CC[C@H](C)[C@H](NC(=O)[C@@H]1CCCN1C(=O)[C@H](CCCCN)NC(=O)[C@H](CC(C)C)NC(=O)[C@H](CC(N)=O)NC(=O)[C@H](CC(N)=O)NC(=O)[C@H](CO)NC(=O)[C@H](CO)NC(=O)[C@H](Cc1c[nH]cn1)NC(=O)[C@H](CCCNC(=N)N)NC(=O)[C@H](CC(C)C)NC(=O)[C@H](Cc1ccccc1)NC(=O)[C@H](CC(=O)O)NC(=O)[C@H](C)NC(=O)[C@H](CC(C)C)NC(=O)[C@H](CCCNC(=N)N)NC(=O)[C@H](CCC(N)=O)NC(=O)[C@@H](NC(=O)[C@H](C)NC(=O)[C@H](C)NC(=O)[C@@H](NC(=O)[C@H](CO)NC(=O)[C@H](CC(C)C)NC(=O)[C@H](CCC(N)=O)NC(=O)[C@H](CO)NC(=O)[C@H](C)NC(=O)COCCOCCNC(=O)COCCOCCNC(=O)CC[C@H](NC(=O)CCCCCCCCCCCCCCCCCCC(=O)O)C(=O)O)[C@@H](C)O)[C@@H](C)O)C(=O)N[C@@H](CC(C)C)C(=O)N1CCC[C@H]1C(=O)N1CCC[C@H]1C(=O)N[C@H](C(=O)N[C@@H](CC(N)=O)C(=O)N[C@H](C(=O)NCC(=O)N[C@@H](CO)C(=O)N[C@@H](CC(N)=O)C(=O)N[C@H](C(=O)N1C[C@H](O)C[C@H]1C(N)=O)[C@@H](C)O)C(C)C)[C@@H](C)O` [M31] ({C20 diacid-γGlu-AEEA-AEEA}-ASQLSTAATQRLADFLRHSSNNLKPILPPTNVGSNT[Hyp]-NH2), for which the Relative activity is on record as 30% and the EC50 was found to be 168 pM.
